The source of these data is patent US20140294994A1, “PHARMACEUTICAL COMPOSITION FOR ELIMINATION OF CANCER STEM CELLS” (priority 2011, published 2014).

Entries after “also recorded” stand apart in the source; their conditions may differ.

Assay [1] concerns A549 cells. Nature of the assay: MTT assay (cell viability). Format: cell-based, human. The following applies: Homo sapiens. The source says:
(§1) In addition to the commonly used cell lines (A549 and H1975), we also established several cell lines including CL83, CL141, CL152, CL25, and CL97 cell lines which were isolated from the pleural effusion of NSCLC patients at the National Taiwan University Hospital. The investigation was approved by the Institutional Review Board of the National Taiwan University Hospital. Informed consent was obtained before pleural effusion was collected.
Background: Tetrazolium assays rely on reduction of a dye to a coloured formazan, in cell work by metabolically active cells.

Assay [2] concerns CL141 cells. Nature of the assay: MTT assay (cell viability). Format: cell-based. Conditions: Homo sapiens; CL141 cell line, 48 hour incubation; read-out: IC50 for trifluoperazine.
Text: as §1

For another assay, the system named is CL152 cells. Kind of assay: MTT assay (cell viability). The class given is cell-based. The following applies: Homo sapiens; CL152 cell line, 48 hour incubation; read-out: IC50 for trifluoperazine.
Text: as §1

Another assay has as its system CL25 cells. Kind of assay: MTT assay (cell viability). The following applies: Homo sapiens; CL25 cell line, 48 hour incubation; read-out: IC50 for trifluoperazine. The class given is cell-based.
Text: as §1

Assay [3] has as its system CL83 cells. Nature of the assay: MTT assay (cell viability). Format: cell-based. Conditions: Homo sapiens; CL83 cell line, 48 hour incubation; read-out: IC50 for trifluoperazine.
Text: as §1

For assay [4], the system named is CL97 cells. Nature of the assay: MTT assay (cell viability). The class given is cell-based. Conditions: Homo sapiens; CL97 cell line, 48 hour incubation; read-out: IC50 for trifluoperazine.
Text: as §1

In the next assay the test system is H1975 cells. Kind of assay: MTT assay (cell viability). The class given is cell-based. Conditions: Homo sapiens, NCI-H1975; H1975 cell line, 48 hour incubation; read-out: IC50 for trifluoperazine.
Text: as §1

Assay [5] has as its system A549 cells. Nature of the assay: Clonogenic assay. The class given is cell-based, human. The following applies: Homo sapiens. On the procedure: The NSCLC cancer cell lines, A549, H1975, CL25, CL83, CL97, CL141, and CL152 were maintained in RPMI medium. Tested cells were seeded respectively in 6 well plates with 10^4 cells per well for 14 days. Each well contained 10 ml RPMI medium as cultured condition for NSCLC cells. […] Trifluoperazine and other tested drugs were added 24 hours after seeding of the cells. The medium and trifluoperazine were changed once on day 4. After the treatments, cells were washed with PBS, and the colonies were fixed with fix solution (acetic acid:methanol=1:3) and stained with 0.5% crystal violet in methanol. After removing the crystal violet carefully and rinse with tap water, the colonies were counted manually.

The subject of assay [6] is CL141 cells. Nature of the assay: Side population analysis (Hoechst 33342, flow cytometry). The class given is cell-based, human. On the procedure:
(§2) Single-cell suspensions of cells were detached from dishes with Trypsin-EDTA (Invitrogen) and suspended at 1×10^6 cells/mL in Hank's balanced salt solution (HBSS) supplemented with 3% fetal calf serum and 10 mM Hepes. […] After 90 minutes incubation, the cells were centrifuged immediately for 5 minutes at 300 g and 4° C. and resuspended in ice-cold HBSS. The cells were kept on ice to inhibit efflux of the Hoechst dye, and 1 μg/mL propidium iodide (BD) was added to discriminate dead cells. Finally, these cells were filtered through a 40 μm cell strainer (BD) to obtain single-suspension cells. Cell dual-wavelength analysis and purification were performed on a dual-laser FACS Vantage SE (BD). […] A 610 nm dichroic mirror short-pass (DMSP) was used to separate the emission wavelengths. PI-positive (dead) cells were excluded from the analysis.
Background: A flow cytometer gives signals particle by particle.

For assay [7], the system named is CL83 cells. Described as above. The following applies: 5 μM, untreated 1.54%. Format: cell-based, human. On the procedure:
as §2

Assay [8] has as its system CL97 cells. The description is as above. Format: cell-based, human. The following applies: 5 μM, untreated 1.9%. On the procedure: as §2
Assay [9] has as its system CL141 spheroids. Kind of assay: Western blotting and immunochemical staining of cancer spheroids. Conditions: CL141 spheroids, 0, 2.5, 5 and 10 μM, 48 hours. The class given is cell-based, human. On the procedure: (§3) Cells were lysed in lysis buffer (50 mM Tris-HCl, pH 7.4, 5 mM MgCl2, 1% Nonidet P-40, 150 mM NaCl, 1 mM phenylmethylsulfonyl fluoride). Total protein was isolated and subjected to SDS polyacrylamide gel electrophoresis and electrotransfered onto PVDF membranes (Millipore). Primary antibodies Bax, Bak, Bcl-2, XIAP, Mcl-1, Cleaved Caspase 9, Caspase 3, […], c-Myc, CD44, cyclin D1 were obtained from Cell Signaling, Met was purchased from Santa Cruz and CD133 was from Miltenyi Biotec, and secondary antibodies for anti-mouse and anti-rabbit horseradish preoxidase (HRP)-conjugation were from Chemicon International. The protein detection was performed with enhanced chemiluminescence (ECL™) method captured by a Luminescence Imaging System (LAS-4000™, Fuji Photo Film Co., Ltd).

In assay [10] the test system is CL141 spheroids. Nature of the assay: Tumor spheroid assay. The class given is cell-based, human. Conditions: 48 hr.
In the next assay the test system is CL97 spheroids. Nature of the assay: Tumor spheroid assay. The class given is cell-based, human. The following applies: 48 hr.
The subject of a further assay is CL97-L2G cells. Kind of assay: Bulk lung tumor model, bioluminescent imaging. Format: in vivo, NOD/SCID mice. The following applies: 4 weeks; trifluoperazine 5 mg/kg/day i.p.; gefitinib 150 mg/kg/day oral gavage; combination trifluoperazine 5 mg/kg/day i.p. + gefitinib 100 mg/kg/day oral. On the procedure:
For bulk lung tumor model, CL97-[…] cells were intravenously administered into the animals via tail vein at a concentration of 1×10^6 cells/100 μl PBS. One week post tumor injection, different treatment regimens were started. […] CL97-[…]-bearing mice (both bulk lung tumor and CSC models) were imaged weekly using the IVIS 200 system (Caliper Life Sciences). Data are expressed as fold change in total photon flux/initial total photon flux and were analyzed using Living Image 1.0 software (Caliper Life Sciences). Mice were humanely sacrificed at the end of experiments and lung tumor biopsies were obtained for further analysis.

A further assay relates to CL97-L2G spheroids. Kind of assay: Prevention experiment, pretreated spheroids orthotopically injected into lung. The following applies: cells pre-treated with 5 μM overnight, versus vehicle-treated control. The class given is in vivo, NOD/SCID mice. On the procedure:
(§4) . […] CL97-L2G-bearing mice (both bulk lung tumor and CSC models) were imaged weekly using the IVIS 200 system (Caliper Life Sciences). Data are expressed as fold change in total photon flux/initial total photon flux and were analyzed using Living Image 1.0 software (Caliper Life Sciences). Mice were humanely sacrificed at the end of experiments and lung tumor biopsies were obtained for further analysis.

Another assay concerns CL97-L2G tumor samples. Nature of the assay: Protein profiles of tumor biopsies (Western blot). The class given is in vivo, NOD/SCID mice. Conditions: tumor biopsies of treated mice. On the procedure:
Total cell lysates were harvested from tumor biopsies of mice which received different treatments and their protein profiles were examined.
as §3, §4
(A western blot detects proteins with antibodies after separation by electrophoresis.)

Usually IC50 stands for the midpoint of a concentration-inhibition curve. As for `CN1CCN(CCCN2c3ccccc3Sc3ccc(C(F)(F)F)cc32)CC1` [Trifluoperazine], the IC50 was over 10 µM in the assay with A549 cells [1] (A549 cell line, read-out: IC50 for trifluoperazine); over 10 µM in the assay with A549 cells [1] (A549 cells, read-out: MTT assay (IC50)); 8.5 µM in the assay on CL141 cells [2]; 12 µM in the assay on CL152 cells; 13 µM in the assay with CL25 cells; 14 µM with CL83 cells [3]. Also, the concentration for half-maximal inhibition (IC50) in the assay on CL97 cells [4] was 7.2 µM; in the assay with H1975 cells, 15 µM; in the assay with A549 cells [5] it was 1.25 to 2.5 µM. Further, the Reduced side population entry in the assay with CL141 cells [6] was “Yes”. Also, the “percentage of side population cells after treatment” value with CL83 cells [7] and in the assay on CL97 cells [8] was “significantly decreased” each time. The “CD44 and CD133 expression” value in the assay on CL141 spheroids [9] is given as “dose-dependently down-regulated”. Besides, the “size and number of spheroids” value with CL141 spheroids [10] and in the assay on CL97 spheroids was “dose-dependently decreased” each time. Besides, the “tumor burden (fold change in bioluminescence intensity)” value in the assay with CL97-L2G cells is on record as “significantly reduced tumor burden; also recorded: significantly lower tumor burden”. Besides, the “in-situ tumor growth (fold change in BLI)” value in the assay with CL97-L2G spheroids is “significantly delayed and suppressed; also recorded: delayed and significantly reduced in-situ tumor growth”. Moreover, the “Cyclin D1 expression in tumor samples” value with CL97-L2G tumor samples is on record as “suppressed”. The “activated form of caspase 3 in tumor samples” value in the assay with CL97-L2G tumor samples is “increased”.
